Laboratory results reported in patent US20240058283A1, “THE MODE OF ACTION OF N-MeDCPA ON TRPC CHANNELS” (West Virginia University Board of Governors on Behalf of …, priority 2022, published 2024).

Legend:
[1] = biological target: dopamine transporter (Homo sapiens, UniProt Q01959); assay: Dopamine transport
Protocol: ELP-004 was evaluated for its ability to cross the blood brain barrier. […] Other medications, such as for example but not limited to bupropion are known to cause problems due to dopamine transporter binding.

[2] = Elimination after administration per os; type: in vivo; details: administered per os

Chain of dopamine transporter (Q01959 whole entry): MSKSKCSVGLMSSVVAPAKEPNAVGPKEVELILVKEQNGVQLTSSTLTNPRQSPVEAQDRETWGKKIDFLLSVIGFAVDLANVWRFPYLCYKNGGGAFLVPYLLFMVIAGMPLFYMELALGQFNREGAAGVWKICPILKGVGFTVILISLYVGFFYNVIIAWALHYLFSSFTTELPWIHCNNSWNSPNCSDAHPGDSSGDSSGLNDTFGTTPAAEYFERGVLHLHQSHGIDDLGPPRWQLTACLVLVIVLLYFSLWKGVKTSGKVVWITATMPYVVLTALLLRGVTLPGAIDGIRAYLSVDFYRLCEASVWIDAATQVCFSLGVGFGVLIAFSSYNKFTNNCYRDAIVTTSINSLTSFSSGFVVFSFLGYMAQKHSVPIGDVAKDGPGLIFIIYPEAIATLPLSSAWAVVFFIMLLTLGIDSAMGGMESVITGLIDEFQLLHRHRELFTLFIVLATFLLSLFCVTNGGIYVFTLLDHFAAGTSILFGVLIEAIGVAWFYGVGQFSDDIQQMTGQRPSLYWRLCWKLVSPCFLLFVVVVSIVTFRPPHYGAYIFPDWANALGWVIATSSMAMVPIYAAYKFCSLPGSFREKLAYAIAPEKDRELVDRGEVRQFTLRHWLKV

For CCC(=O)N(C)c1ccc(Cl)c(Cl)c1 [ELP-004, N-(3,4-dichlorophenyl)-N-methylpropanamide], the “problems with dopamine transport” value [1] was “does not cause problems with dopamine transport” and the “time until essentially eliminated” value [2] was ≤ 4 h.
